Source: patent US20100278849A1, “PROSTATIC ACID PHOSPHATASE ANTIGENS” (priority 2004, published 2010)
“Also recorded” adds a separate entry of the source.

Assays:
Format in all cases: cell-based
HLA-A2*0201 = HLA-A2*0201 (Homo sapiens, UniProt P04439, D140Y/D185E/D98H/E176V/E277Q/G131W/G231S/I119V/I121R/I166T/I218V/L300P/L318F/N151K/N90K/P208A/P217A/Q86G/Q94H/R138H/R169H/T345S); conditions: peptide at 100, 10 and 1 μM; compared with positive control influenza M1 peptide; three independent experiments
HLA-DRβ1*0101 = test: Proliferation of splenocytes from immunised HLA-DR1 mice with peptide-pulsed BM-DC (tritiated thymidine); conditions: for proliferative response of splenocytes from HLA-DR1 mice: FVB/N-DR1 / HLA-DRβ1*0101 transgenic mice; for number of HLA-DR1 mice whose splenocytes demonstrated specific proliferation: responding/total mice, after re-stimulation in vitro with relevant peptide
Procedure: (§1) HLA-A2.1/K^b mice were immunised with an emulsion consisting of 100 μg of the putative class-I peptide epitope and 100 μg of non-specific class-II peptide derived from hepatitis B virus in 50% incomplete Freund's adjuvant (IFA). HLA-DR4- and HLA-DR1-transgenic mice were immunised twice at one week interval with 100 μg of class-II peptide emulsified in 50% incomplete Freund's adjuvant (IFA) and 50% PBS. All vaccine were delivered as a 100 μl intradermal bolus inoculum at the base of the tail.
(§2) 0DC were generated using a method adapted from Inaba et al (Inaba et al. 1992). Briefly, femurs and tibias were harvested aseptically from non-immunised DR1 or DR4 transgenic mice and placed in sterile PBS supplemented with 50 IU/ml penicillin, 50 μg/ml streptomycin, and 0.25 μg/ml fungizone. The marrow was flushed out of the bone using BM-DC media (RPMI 1640 medium supplemented with 2 mM glutamine, 5% FCS, 10 mM Hepes, 501M 2-ME, 50 μg/ml penicillin, 50 μg/ml streptomycin, 0.25 μg/ml fungisone and 10% of supernatant collected from X-63 cells). The cells were washed once in BM-DC media and plated in 24-well plates at 10^6/well in 1 ml DC media and incubated at 37° C. in a 5% CO2 humidified atmosphere. On days 2 and 4, the non-adherent cells (T cells, B cells, granulocytes) were removed, and the remaining cells were cultured in fresh DC medium. After 7-9 days, clusters of loosely adherent DC were dislodged and collected by gently pipetting, before being washed and seeded in 24-well plates at 0.5×10^6 cells/well in 1 ml DC media. Peptides were added at 1 μg/well and the plates were incubated at 37° C. 1 μg/ml of LPS was added after 5 hours, and the plates were incubated overnight at 37° C. in a 5% CO2 in air-humidified atmosphere.
(§3) After 6 days, the spleens from immunised animals were collected and the cells flushed out using T cell media (RPMI+10% FCS+20 mM HEPES buffer+50 μM 2-mercaptoethanol+50 U/ml penicillin/streptomycin+0.25 μg/ml fungizone). The remaining splenic tissue was digested using an enzyme cocktail (0.1 U/ml DNAase (Sigma)+1.6 mg/ml collagenase (Sigma)) for 1 hour at 37° C. The cell suspension obtained was pooled with the flushed cells, washed once, and the splenocytes were plated in 24 well plates with 10 μg/ml of peptide at a density of 2.5×10^6/ml for FVB/N-DR1 or 3.5×10^6/ml for C57BL/6-DR4. Cells were also cultured with an irrelevant peptide as a control. To measure cytokine production, culture supernatants were collected on day 2 and 5 of the culture for the measurement of cytokine by ELISA.
Splenocytes from immunised animals cultured for 6 days in the presence of 10 μg of the test peptide were harvested, washed and counted. CD8+ T cells were depleted from the cell suspension using anti-CD8+ antibody coupled with magnetic beads (Dynal, UK) as per the manufacturers instructions. Cells were then washed in PBS and resuspended at 5×10^5/ml in T cell medium. 100 μl of T cells was then added to all wells. Anti-DR antibody (L243) or isotype control were added to some wells to confirm the MHC specificity of the T-cell response. LPS-treated dendritic cells were harvested, washed and incubated in 1 ml of DC medium with the addition of 10 íg of peptide at 37° C. for 5 hours. After washing, 10^3 peptide-pulsed DC were added to the relevant wells of lymphocyte cultures in 50 íl media. […] Plates were harvested onto 96 Uni/Filter (Packard), the scintillation liquid (Microscint 0, Packard) was added and the plates were counted on a Top-Count counter (Packard). […]

IFN-γ [1] = test: Cytokine production by splenocytes of immunised C57BL/6-DR4 mice, ELISA; conditions: relevant versus irrelevant peptide
Procedure: as §3
(§4) Aliquots of supernatants were removed from CTL cultures on days 1 and 5 and on days 2 and 5 from CD4′ T cell cultures and stored at −20° C. until required. ELISA was used to quantitate concentrations of murine IFN-γ and IL-5 (R&D systems, UK).
We further investigated HLA-DR class-II restricted responses to PAP peptides that were predicted to bind to HLA-DR1 and HLA-DR4 according to the evidence-based computer assisted algorithm […]. The peptides displaying high binding scores for both HLA-DR alleles were selected and further studied (Table 1). C57BL/6-DR4 mice were immunised with these predicted HLA-DR-restricted PAP and the proliferative and IFN-γ response to peptide stimulation in vitro was monitored by proliferation assays and cytokine measurements. PAP. 64 and PAP.

IFN-γ [2] = test: Cytokine production by splenocytes of immunised FVB/N-DR1 mice, ELISA
Procedure: as §3, §4

HLA-DRβ1*0401 = test: Proliferation of splenocytes from immunised HLA-DR4 mice with peptide-pulsed BM-DC (tritiated thymidine); conditions: for effect of anti-HLA-DR antibody (L243) on proliferation: not blocked by isotype control; for proliferation of splenocytes from immunised HLA-DR4 mice: re-stimulated in vitro with peptide for 5 days; for number of HLA-DR4 mice whose splenocytes demonstrated specific proliferation: responding/total mice, after re-stimulation in vitro with relevant peptide
Procedure: as §1, §2, §3
[…] CD8+ T cells were depleted from the cell suspension using anti-CD8+ antibody coupled with magnetic beads (Dynal, UK) as per the manufacturers instructions. Cells were then washed in PBS and resuspended at 5×10^5/ml in T cell medium. 100 μl of T cells was then added to all wells. Anti-DR antibody (L243) or isotype control were added to some wells to confirm the MHC specificity of the T-cell response. LPS-treated dendritic cells were harvested, washed and incubated in 1 ml of DC medium with the addition of 10 íg of peptide at 37° C. for 5 hours. After washing, 10^3 peptide-pulsed DC were added to the relevant wells of lymphocyte cultures in 50 íl media. These plates were then incubated for 3 days at 37° C. in a 5% CO2 in air-humidified atmosphere. Tritriated thymidine was then added to the culture and incubated again for 18 hours. Plates were harvested onto 96 Uni/Filter (Packard), the scintillation liquid (Microscint 0, Packard) was added and the plates were counted on a Top-Count counter (Packard). Results are expressed in counts per minute (cpm) and as a means of the triplicate wells. Statistical analysis was performed using unpaired Student's t test. […]

IMYSAHDTTV (listed as Homo sapiens) [PAP.284]
binding to HLA-A2 (T2 cells) (HLA-A2*0201): Weak binding

PQGFGQLTQLGMEQH (listed as Homo sapiens) [PAP.64]
proliferative response of splenocytes from HLA-DR1 mice (HLA-DRβ1*0101): failed, with the exception of one out six experiments | number of HLA-DR1 mice whose splenocytes demonstrated specific proliferation (HLA-DRβ1*0101): 1/6 | IFN-γ production by splenocytes (IFN-γ [1]): not produced specifically | IFN-γ or IL-50 (cytokine) production of splenocytes (IFN-γ [2]): failed, with the exception of one out six experiments | effect of anti-HLA-DR antibody (L243) on proliferation (HLA-DRβ1*0401): inhibited by the addition of L243 antibody | effect of anti-HLA-DR antibody (L243) on proliferation (HLA-DRβ1*0401; listed as PAP. 64): blocked in the presence of L243 antibody | proliferation of splenocytes from immunised HLA-DR4 mice (HLA-DRβ1*0401): Specific proliferation | number of HLA-DR4 mice whose splenocytes demonstrated specific proliferation (HLA-DRβ1*0401): 2/5 | number of HLA-DR4 mice whose splenocytes demonstrated specific proliferation (HLA-DRβ1*0401; listed as PAP. 64): 2 out of 5

ALASCFCFFC (listed as Homo sapiens) [PAP.15]
binding to HLA-A2 (T2 cells) (HLA-A2*0201): no significant binding

SKVYDPLYSESVHNF (listed as Homo sapiens) [PAP.207]
proliferative response of splenocytes from HLA-DR1 mice (HLA-DRβ1*0101): failed, with the exception of one out six experiments | number of HLA-DR1 mice whose splenocytes demonstrated specific proliferation (HLA-DRβ1*0101): 0/5 | IFN-γ production by splenocytes (IFN-γ [1]): not produced specifically | IFN-γ or IL-50 (cytokine) production of splenocytes (IFN-γ [2]): failed, with the exception of one out six experiments | effect of anti-HLA-DR antibody (L243) on proliferation (HLA-DRβ1*0401): inhibited by the addition of L243 antibody | effect of anti-HLA-DR antibody (L243) on proliferation (HLA-DRβ1*0401; listed as PAP. 207): blocked in the presence of L243 antibody | proliferation of splenocytes from immunised HLA-DR4 mice (HLA-DRβ1*0401): Specific proliferation | number of HLA-DR4 mice whose splenocytes demonstrated specific proliferation (HLA-DRβ1*0401): 1/6 | number of HLA-DR4 mice whose splenocytes demonstrated specific proliferation (HLA-DRβ1*0401; listed as PAP. 207): 1 out of 6

VLAKELKFV (listed as Homo sapiens) [PAP.30, class-I PAP peptide already known in the art (Peshwa, 1998), reference compound]
binding to HLA-A2 (T2 cells) (HLA-A2*0201): strong binding; also recorded: moderate HLA-A2 binding
